Test results taken from patent US20150111852A1, “1-Di(sec-butyl)-phosphinoyl-pentane (dapa-2-5) as a topical agent” (priority 2013, published 2015).

How the values were obtained:
[1] = test system: isolated normal mouse vagus; assay: Capsaicin-induced depolarization of isolated vagus nerve, wild type
Protocol: (§1) To examine the ability of DAPA-2-5 to suppress sensory discomfort, it was tested in an animal model developed at the Imperial College, London, U.K. [Birrell et al. TRPA1 agonists evoke coughing in guinea pig and human volunteers. Amer. J. Respiratory and Critical Care Medicine 180, 1042-7, 2009; Patel et al., Inhibition of guinea-pig and human sensory nerve activity and the cough reflex in guinea-pigs by cannabinoid (CB2) receptor activation. British J. Pharmacol. 140, 261-8 2003]. In this in vitro assay, segments of the vagus nerve are placed on a platform and the electrical activity is recorded after topical application of capsaicin. Capsaicin is a known irritant that elicits pain when it is applied to the skin and it will depolarize the isolated vagus. The ability of substances to inhibit this capsaicin-induced depolarization is measured.
(§2) Briefly, segments of vagus nerve, caudal to the nodose ganglion, were removed from mice with fine forceps and segments placed in oxygenated Krebs solution and bubbled with 95% O2/5% CO2. The desheathed nerve trunk was mounted in a ‘grease-gap’ recording chamber and constantly superfused with Krebs solution with a flow rate of approximately 2 mL/min, and the electrical activity of the nerve monitored with electrodes. The temperature of the perfusate was kept constant at 37° C. by a water bath. […]

rat skin = assay: Irritant activity on shaved abdominal rat skin; format: in vivo; design: key to Redness after 20 μL applied topically to skin (scale of 0 to +++): the presence of redness (irritation) was graded on a scale of 0 to +++; the presence of redness (irritation) was graded on a scale of 0 to +++; the presence of redness (irritation) was graded on a scale of 0 to +++; the presence of redness (irritation) was graded on a scale of 0 to +++; conditions: for Redness after 20 μL applied topically to skin (scale of 0 to +++): pure compound, 1 hour; for skin irritancy in words: undiluted form
Protocol: This hypothesis was tested by applying 20 μL of the pure compound onto the shaved abdominal skin of a pentobarbital-anesthetized rat. The test substance was enclosed in a circle of ˜1 cm diameter with a ring of cream. The test substance was applied with a micropipette, and after 1 hour the area was wiped with a cotton pad and the presence of redness (irritation) was graded on a scale of 0 to +++.

[2] = molecular target: T1, hNav1.7 (sodium channels) (Homo sapiens, UniProt Q15858); assay: Patch-clamp in transfected cells, hNav1.7; format: cell-based; conditions: DAPA-2-5 at 5 μM; positive control lidocaine
T1 construct: expressed in transfected cells

Strains TA 98 and TA100 = assay: Ames test; format: cell-based; conditions: Strains TA 98 and TA100, with and without liver activation
Protocol: Preliminary toxicological studies were conducted on DAPA-2-5 and DAPA-2-7.

[3] = test system: isolated TRPM8 knock-out mouse vagus; assay: Capsaicin-induced depolarization of isolated vagus nerve, TRPM8 knock-out; conditions: 1 mg/mL, capsaicin 1 μM, TRPM8 KO, read-out: per cent inhibition of capsaicin-induced depolarization
Protocol: as §1, §2

mouth and throat = assay: Sensory activity of ODT-C on volunteers (double-blind, modified ASHRAE scale); format: in vivo, human; conditions: doses higher than 1.5 mg
[4] = test system: throat, airway and chest discomfort; assay: Case studies with DAPA-2-5 tablets in human subjects; format: in vivo; conditions: for precipitation of “ice cream headache” (Case Study 5): ODT-A 2 mg
[5] = Repeated-dose toxicity in male rats (organ weights, histology); format: in vivo, rat
Protocol: DAPA-2-7, dissolved in 3% ethanol/97% 1,2-propanediol, or vehicle alone, was administered subcutaneously to male rats (N=8 per group) at 30 mg/kg body weight daily for 7 days, and on the 8th day, the animals were euthanized with sodium pentobarbital and the major organs (body, heart, liver, lungs, kidney, testes, brain) were removed and weighed. Heart tissues (ventricle and heart valves) and liver samples were stained with hematoxylin and eosin and the histology examined.
In a large scale trial, DAPA-2-5 was administered via drinking water to male rats for 40 days. The DAPA-2-5 was mixed with condensed milk [8.5%] at 0.5 mg/mL and liquid consumption was monitored. The averaged intake in the treated group [N=12 rats] was 41 mg/kg body weight/day for 40 days. The vehicle alone group was N=11.

[6] = HPLC content of DAPA-2-5 recovered from disintegrated prototype tablets; format: physicochemical
Protocol: A high pressure liquid chromatography [HPLC] method was developed for analysis of DAPA-2-5 in aqueous solution. The chromatographic conditions were: Column: Waters XTerra RP18, 150×4.6 mm, 3.5 μm, Column temperature: 40° C., Mobile phase : 0.1% Tetrabutyl ammonium and Tri fluro acetic acid in 900mL water and 100 mL Acetonitrile, Flow: 1.0 mUmin, Diluent : Water, Wavelength: 226 nm, Injection Volume: 100 μL, Run time: 10 min, Standard Preparation: 0.75 mg/mL of DAPA-2-5 in water. Sample Preparation: Equivalent to 0.75 mg/mL of DAPA-2-5 in water. Prototype tablets containing DAPA-2-5 were disintegrated and the content of DAPA-2-5 measured. […] It is likely that the non-eluted DAPA-2-5 remains tightly bound to sites on the Neusilin US2.

[7] = molecular target: T2, TRPV1 channels (human TRPV1 gene expressed in HEK293 cells) (Homo sapiens, UniProt Q8NER1); assay: TRPV1 agonist assay; format: cell-based
T2 construct: expressed in transfected cells; host or cells: HEK293 cells
Protocol: To examine the specificity of the test compounds, further studies were conducted on TRPV1 channels (human TRPV1 gene expressed in HEK293 cells) and TRPA1 channels (human TRPA1 gene expressed in CHO cells). The test cells were Chinese Hamster Ovary (CHO) cells or Human Embyronic Kidney (HEK) 293 cells transfected with human TRPV1 or TRPA1 cDNAs.

[8] = male rats, 30 mg/kg subcutaneously daily for 7 days

T1 sequence (Q15858 whole entry): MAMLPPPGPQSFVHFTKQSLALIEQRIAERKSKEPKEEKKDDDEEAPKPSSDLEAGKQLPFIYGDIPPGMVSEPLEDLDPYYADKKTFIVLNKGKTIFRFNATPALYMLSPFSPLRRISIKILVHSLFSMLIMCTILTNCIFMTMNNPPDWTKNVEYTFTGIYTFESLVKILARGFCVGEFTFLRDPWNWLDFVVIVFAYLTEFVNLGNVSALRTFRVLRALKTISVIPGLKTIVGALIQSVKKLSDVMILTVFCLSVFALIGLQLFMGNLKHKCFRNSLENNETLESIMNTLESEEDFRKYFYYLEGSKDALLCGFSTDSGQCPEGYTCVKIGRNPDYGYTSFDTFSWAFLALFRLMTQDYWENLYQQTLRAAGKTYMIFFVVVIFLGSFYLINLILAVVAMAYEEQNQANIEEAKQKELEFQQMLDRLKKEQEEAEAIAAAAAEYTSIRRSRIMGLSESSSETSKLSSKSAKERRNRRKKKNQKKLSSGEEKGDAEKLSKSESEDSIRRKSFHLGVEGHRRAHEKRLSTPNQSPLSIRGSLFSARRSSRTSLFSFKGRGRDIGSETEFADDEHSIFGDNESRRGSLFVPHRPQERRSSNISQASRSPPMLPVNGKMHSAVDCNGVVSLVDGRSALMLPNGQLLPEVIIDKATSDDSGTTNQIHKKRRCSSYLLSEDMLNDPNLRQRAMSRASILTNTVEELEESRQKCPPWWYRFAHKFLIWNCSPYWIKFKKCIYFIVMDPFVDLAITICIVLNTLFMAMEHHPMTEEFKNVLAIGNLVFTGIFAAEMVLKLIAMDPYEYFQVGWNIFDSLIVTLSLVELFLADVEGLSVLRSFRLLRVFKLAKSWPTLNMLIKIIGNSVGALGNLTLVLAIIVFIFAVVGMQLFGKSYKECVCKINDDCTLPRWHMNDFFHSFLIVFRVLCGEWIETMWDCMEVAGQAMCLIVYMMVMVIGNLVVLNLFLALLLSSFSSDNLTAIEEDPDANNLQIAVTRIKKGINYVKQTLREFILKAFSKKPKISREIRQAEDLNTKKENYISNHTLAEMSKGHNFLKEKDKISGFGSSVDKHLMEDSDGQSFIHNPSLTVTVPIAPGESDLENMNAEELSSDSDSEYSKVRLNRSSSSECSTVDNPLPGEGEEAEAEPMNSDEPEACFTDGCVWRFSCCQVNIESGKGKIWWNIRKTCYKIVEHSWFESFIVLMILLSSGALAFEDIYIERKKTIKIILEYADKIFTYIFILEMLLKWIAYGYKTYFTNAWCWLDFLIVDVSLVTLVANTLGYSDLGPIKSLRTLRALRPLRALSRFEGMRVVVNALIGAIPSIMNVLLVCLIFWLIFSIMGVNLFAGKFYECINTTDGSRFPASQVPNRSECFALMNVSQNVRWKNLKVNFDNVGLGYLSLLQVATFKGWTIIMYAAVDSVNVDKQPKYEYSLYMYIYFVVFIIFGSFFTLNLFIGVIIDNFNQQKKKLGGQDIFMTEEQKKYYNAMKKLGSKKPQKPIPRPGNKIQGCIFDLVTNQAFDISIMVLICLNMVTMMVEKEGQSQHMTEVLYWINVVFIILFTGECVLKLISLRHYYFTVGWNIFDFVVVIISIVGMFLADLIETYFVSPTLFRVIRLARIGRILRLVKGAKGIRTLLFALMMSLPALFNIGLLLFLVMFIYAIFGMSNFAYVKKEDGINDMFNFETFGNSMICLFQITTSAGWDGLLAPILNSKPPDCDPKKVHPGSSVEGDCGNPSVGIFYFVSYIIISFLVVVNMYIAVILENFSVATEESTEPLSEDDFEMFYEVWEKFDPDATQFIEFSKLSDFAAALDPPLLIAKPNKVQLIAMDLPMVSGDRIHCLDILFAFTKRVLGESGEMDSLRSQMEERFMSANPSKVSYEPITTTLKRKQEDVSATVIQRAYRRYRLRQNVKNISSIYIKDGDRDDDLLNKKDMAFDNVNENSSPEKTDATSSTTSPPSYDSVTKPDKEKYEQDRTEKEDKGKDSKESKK
T2 sequence (Q8NER1 whole entry): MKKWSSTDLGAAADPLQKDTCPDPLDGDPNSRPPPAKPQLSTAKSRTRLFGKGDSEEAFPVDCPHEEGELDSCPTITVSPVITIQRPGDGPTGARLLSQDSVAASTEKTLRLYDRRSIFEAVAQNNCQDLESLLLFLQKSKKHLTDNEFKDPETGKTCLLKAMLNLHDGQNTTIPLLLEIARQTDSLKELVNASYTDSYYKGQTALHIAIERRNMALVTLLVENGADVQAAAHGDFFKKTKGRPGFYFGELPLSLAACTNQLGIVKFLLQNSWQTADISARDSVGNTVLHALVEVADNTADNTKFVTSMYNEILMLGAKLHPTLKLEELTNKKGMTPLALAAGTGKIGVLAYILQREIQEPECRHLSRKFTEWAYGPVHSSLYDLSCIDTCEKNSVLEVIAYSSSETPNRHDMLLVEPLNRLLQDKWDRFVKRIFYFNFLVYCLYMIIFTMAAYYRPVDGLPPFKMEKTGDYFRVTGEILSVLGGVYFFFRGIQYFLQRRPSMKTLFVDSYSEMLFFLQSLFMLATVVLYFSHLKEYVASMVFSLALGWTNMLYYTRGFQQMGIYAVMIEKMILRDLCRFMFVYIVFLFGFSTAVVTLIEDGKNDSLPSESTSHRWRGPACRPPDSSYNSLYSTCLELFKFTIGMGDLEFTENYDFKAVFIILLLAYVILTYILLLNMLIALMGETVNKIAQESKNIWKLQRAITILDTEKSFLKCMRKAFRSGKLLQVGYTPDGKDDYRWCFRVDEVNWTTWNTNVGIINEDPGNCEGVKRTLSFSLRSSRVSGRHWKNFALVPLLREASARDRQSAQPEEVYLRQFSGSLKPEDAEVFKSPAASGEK

## CCCCCP(=O)(C(C)CC)C(C)CC (centres unmarked) [DAPA-2-5, 1-Di(sec-butyl)-phosphinoyl-pentane]
[1]
  depolarization evoked by the compound itself: did not evoke depolarization
[1]; Mus musculus, 10 min, 1 mg/mL for 10 min, capsaicin 1 μM, read-out: per cent inhibition of capsaicin-induced depolarization
  inhibition at 1000 µg/mL: ~60%
Rat skin
  Redness after 20 μL applied topically to skin (scale of 0 to +++): 0
  skin irritancy in words: minimal or no pro-inflammatory actions on the skin
[2]
  agonist or antagonist activity, hNav1.7: No agonist or antagonist activities
Strains TA 98 and TA100
  mutagenic in the Ames test: Neither of these compounds was mutagenic
[3]
  inhibition at 1000 µg/mL: ~0%
Mouth and throat
  ODT-C test results at higher doses: higher than 1.5 mg “penetrating cold” sensations.
[4]; ODT-A 1.0 mg as needed, six women
  effective in reducing throat discomfort (Case Study 7): 100%
[4]; ODT-A 1 mg, twenty trials
  hoarseness and loss of voice (Case Study 6): immediate relief from throat discomfort
[4]; ODT-A 1 mg, two subjects
  choking and gagging in asthma (Case Study 4): effective in controlling choking and gagging
[4]; ODT-A 1.5 mg, two or three tablets at a time, after a week's trial
  cough in cough variant asthma (Case Study 4): completely under control
[4]
  precipitation of “ice cream headache” (Case Study 5): Neither of the ODT precipitated a headache response
[4]; ODT-A, 1 to 1.5 mg, person, five occasions
  relief of hoarseness (Case Study 1): fully effective in relieving their hoarseness
[4]; four tablets with water
  time to disappearance of chest discomfort (Case Study 8, second person): about 10 min
[4]; tablets 2 mg before sleep
  snoring (Case Study 9): stopped snoring
[4]; three tablets, each 1.5 mg
  time to relief of chest discomfort (Case Study 8): ≤ 5 min
[4]; two DAPA-2-5 ODT
  hiccups (Case Study 5): stopped within several min
  throat discomfort from acid reflux (Case Study 5): immediately controlled their throat discomfort from acid reflux
[4]; two tablets of 1 mg or one of 1.5 mg, with viral cold
  nasal congestion (Case Study 2): effective remedy
[5]; male rats, via drinking water, averaged intake 41 mg/kg body weight/day for 40 days
  difference in organ weights or histology vs vehicle: no statistical difference
[5]; rats, 20 mg/kg perioral by gavage for 7 days
  difference in organ weights or histology vs vehicle: no statistical difference
[6]
  DAPA-2-5 recovered from the aqueous phase: 86±2%
[7]
  times less potent than DAPA-2-6 in stimulating TRPV1: 54

## CCCCCCP(=O)(C(C)CC)C(C)CC (centres unmarked) [DAPA-2-6, 1-Di(sec-butyl) phosphinoyl-hexane]
Rat skin
  Redness after 20 μL applied topically to skin (scale of 0 to +++): +
  skin irritancy in words: is a skin irritant

## CCCCCCCP(=O)(C(C)CC)C(C)CC (centres unmarked) [DAPA-2-7, 1-Di(sec-butyl) phosphinoyl-heptane]
Rat skin
  Redness after 20 μL applied topically to skin (scale of 0 to +++): ++
  skin irritancy in words: is a skin irritant
Strains TA 98 and TA100
  mutagenic in the Ames test: Neither of these compounds was mutagenic
[4]
  precipitation of “ice cream headache” (Case Study 5): Neither of the ODT precipitated a headache response
[5]; [8]
  differences in body or organ weights vs vehicle: no significant differences
  heart and liver histology: normal
